Laboratory results as given in publication PMC3741113, “De-Novo Design of Antimicrobial Peptides for Plant Protection” (PLoS ONE, 2013).

Tests used:
[1] = tested on: Pseudomonas corrugata; settings: LB-medium, about 10^5 CFU/ml, 27°C, 1–2d, OD590 nm; at least two independent replicates
[2] = tested on: C. herbarum; test: Peptide spraying on inoculated tomato leaves, fungal growth; assay type: in vivo, C. herbarum on tomato (Microtom); settings: 5 µg/ml peptide sprayed 22 h after inoculation (10^4 spores/ml); fungal DNA by RT-PCR
Description: (§1) To determine antifungal activity of AMPs four week old tomato plants (Microtom) were inoculated with fungal spores using an aerosol can. Spores were harvested by washing sporulating plate-grown fungi (A. alternata and C. herbarum) with 62.5 mM KH2PO4 (pH 6.0) supplemented with 5.5 mM glucose and 0.1% Tween-20. One leaf per plant (three plants per treatment) was sprayed adaxial and abaxial with 500 µl spore suspension (10^4 spores/ml). In this way approximately 100 µl spore suspension was applied directly onto the plant surface. Plants were covered with a plastic cap to guarantee high humidity and incubated at 20°C. After two hours the T0 tissue sample was collected. AMPs were sprayed onto the leaf surface 22 h after inoculation. Leaves were harvested 24 h and 48 h after peptide treatment. Frozen material was homogenized in liquid nitrogen and fungal DNA was isolated. Quantification of fungal DNA content was done by qRT-PCR amplifying the nuclear encoded ribosomal internal transcribed spacer (ITS) regions. ITS1-forward and ITS4-reverse primers were used at an annealing temperature of 60°C: For A. alternata: ITS1-Alt-for, 5′-[…]-3′ and ITS4_Alt-rev, 5′-[…]-3′ and for C. herbarum: ITS1-Cla-for 5′-[…]-3′ and ITS4-Cla-rev, 5′-[…]-3′ (synthesized by metabion, Munich, Germany). […] Differences between the mean values were analysed using an unpaired t-test analysis of variance.

[3] = tested on: Botrytis cinerea; settings: 2% malt extract medium, 1.5–2×10^3 spores/ml, room temperature, 3d, visual screening; lowest concentration with no visible growth; at least two independent replicates
[4] = tested on: Alternaria alternata; settings: 2% malt extract medium, 1.5–2×10^3 spores/ml, room temperature, 3d, OD590 nm; lowest concentration with no visible growth; at least two independent replicates
[5] = tested on: Xanthomonas vesicatoria; settings: LB-medium, about 10^5 CFU/ml, 27°C, 1–2d, OD590 nm; at least two independent replicates
[6] = tested on: Pectobacterium carotovorum ssp. carotovorum; settings: LB-medium, about 10^5 CFU/ml, 27°C, 1–2d, OD590 nm; at least two independent replicates
[7] = tested on: Arabidopsis mesophyll protoplasts; test: Phytotoxicity on plant protoplasts; assay type: cell-based; settings: concentrations up to 100 µg/ml
Description: Phytotoxicity was measured on Arabidopsis mesophyll protoplasts prepared from leaves as described in [80]. 80 µl protoplast suspension containing about 5000 protoplasts were incubated with 20 µl peptide solution. Final peptide concentrations were 0, 10, 100 and 200 µg/ml. The phytotoxic effect of antimicrobial peptides was observed after 1 h with a light microscope. Hints to cell death are loss of spherical shape, chloroplast release and/or agglomeration of protoplasts.

[8] = tested on: Pseudomonas syringae pv. tomato; settings: LB-medium, about 10^5 CFU/ml, 27°C, 1–2d, OD590 nm; at least two independent replicates
[9] = tested on: Clavibacter michiganensis ssp. michiganensis; settings: LB-medium, about 10^5 CFU/ml, 27°C, 1–2d, OD590 nm; at least two independent replicates
[10] = tested on: Cladosporium herbarum; settings: 2% malt extract medium, 1.5–2×10^3 spores/ml, room temperature, 3d, visual screening; lowest concentration with no visible growth; at least two independent replicates
[11] = tested on: A. alternata; test: Peptide spraying on inoculated tomato leaves, fungal growth; assay type: in vivo, A. alternata on tomato (Microtom); settings: 50 µg/ml peptide sprayed 22 h after inoculation (10^4 spores/ml); fungal DNA by RT-PCR
Description: as §1

For KRRLIARILRLAARALVKKR-NH2 [SP13-D], the MIC [1] was 40 µg/mL, the “growth inhibition on tomato leaves” value [2] was “More than 80%” and the MIC [3] was over 40 µg/mL. The MIC [4] was 20 µg/mL, the MIC [5] was 2 µg/mL and the MIC [6] was over 40 µg/mL. The “phytotoxicity (in words)” value [7] was “no phytotoxicity”, the MIC [8] was 1 µg/mL and the MIC [9] was 10 µg/mL. For the same substance, the MIC [10] was 5 µg/mL.
In the case of LRFLKKILKHLF-NH2 [SP10-D], the “growth inhibition on tomato leaves” value [11] is reported as “around 70%”, the MIC [3] is reported as 10 µg/mL and the MIC [4] is reported as 5 µg/mL. The MIC [5] was 2 µg/mL, the MIC [6] was over 40 µg/mL and the “phytotoxicity (in words)” value [7] was “no phytotoxicity”. For the same substance, the MIC [9] was 5 µg/mL and the MIC [10] was 5 µg/mL.
